Measured values as given in paper PMC7835349 (Communications Biology, 2021).
Where “and” joins values, the source holds several entries; their conditions need not be identical. Equal values may be shown once.

Tests used:
platelets = test: Platelet count in rats; assay type: in vivo
From the text: Supplementary Figure 7. Effect of AZD4320 and AZD4320-dendrimer conjugates on platelet count in rats. Data for dendrimers was collected from the same rats for which cardiovascular data were acquired (see Fig. 4a and b). Data for AZD4320 was collected from a non-cardiovascular study. Each symbol represent data from an individual rat. Colours representing each compound and dose are shown on the figure.
(§1) (1 picture or pasted object on this page, not shown here)

Aqueous solubility = assay type: physicochemical; conditions: aqueous buffers at physiological pH
tumours = test: Formulation dependent efficacy of AZD4320 (Fig S2a); assay type: in vivo; conditions: single 5mg/kg IV bolus
Method: Supplementary Figure 2. Formulation dependent efficacy of AZD4320 (a) A single 5mg/kg
IV bolus dose of AZD4320 formulated in 30% hydroxypropyl-β-cyclodextrin (HP-β-CD)
Data in the graphs are represented as mean tumor volume
± SEM (n=5). […]
as §1

[1] = Plasma protein binding (unbound fraction); assay type: in vitro ADME; conditions: pre-clinical species and human, across pre-clinical species and man
cleaved caspase-3 (CC3) = test: Cleaved caspase-3 immunohistochemistry of RS4;11 tumours; assay type: in vivo, C.B-17 SCID mouse; conditions: RS4;11 tumours, 1, 5 and 24 h post dose
Method: Formalin fixed paraffin embedded (FFPE) slides were cut on a rotary microtome at 4 µm and placed onto Superfrost plus slides (VWR) dried thoroughly, and then baked for 20 min in an oven at 60 °C. Slides were then stained on a Ventana Discovery XT using a CCI standard protocol and DAB Map Kit (Ventana cat # 760-124). The slides were then incubated in the primary CC3 (Cell Signaling Technology) antibody at 100µL per slide of a 1:50 dilution for 1 h. The secondary antibody was a biotinylated goat anti-rabbit from Vector Labs (PK-6101) made according to manufacturer’s instructions and put in an auto-dispense container. The slides were incubated in the secondary antibody for 30 min and then counterstained with Hematoxylin (Ventana 760-2021) for 4 min and blued with bluing reagent (Ventana 760-2037) for 4 min. After the Ventana run was complete, slides were taken off the machine, rinsed in reaction buffer, dehydrated, cleared and mounted with permount. Digital slide images were acquired at 20 x magnification using the Aperio Scanscope XT (Vista, CA).

OCI-LY10 xenograft = OCI-LY10 xenograft efficacy and survival; assay type: in vivo, C.B-17 SCID mouse; parameters: OCI-LY10 xenograft efficacy, individual animals: unit not given here; conditions: for OCI-LY10 xenograft efficacy, individual animals: AZD0466 103 mg/kg (30mg/kg AZD4320)
Method: Female C.B.−17 SCID mice were purchased from Charles River Laboratories. Mice were 5–8 weeks old at the time of tumour implantation. All xenograft studies were conducted at our Association for the Assessment and Accreditation of Laboratory Animal Care accredited facility in Waltham, MA in accordance with ethical regulations described in the guidelines established by the internal Institutional Animal Care and Use Committee. The dendrimer conjugates were formulated in citrate/phosphate buffer pH 5.0, diluted 1:10 with 5% glucose containing 1% w/v Kolliphor HS15, and AZD4320 was formulated in 30% HP-β-CD and dosed as a weekly intravenous (IV) administration at a volume of 5 ml/kg at the indicated doses. Five million RS4;11, five million SUDHL-4 or five million OCI-LY-10 cells were injected subcutaneously in the right flank of mice in a volume of 0.1 ml. Tumour volumes (measured by caliper), animal body weight, and tumor condition were recorded twice weekly for the duration of the study. The tumour volume was calculated (taking length to be the longest diameter across the tumour and width to be the corresponding perpendicular diameter) using the formula: length (mm) x width (mm)^2/0.52. For efficacy studies, mice were randomized based on tumour volumes using stratified sampling and enrolled into control and treatment groups. Tumour growth inhibition from the start of treatment was quantified by measuring the difference in tumour volume between control and treated groups. Survival analysis was evaluated using Mantel-Cox test. Tumours were also taken for bioanalysis.

Row | Compound | Platelet count, individual rat (platelets; 10mg/kg, Day 2 (3h post dose), 10 mg/kg) | Platelets post-dose (platelets; rat, Dose 10 mg/kg (AZD4320 equivalent 10 for AZD4320, 3 for conjugates)) | solubility (Aqueous solubility) | efficacy (tumours; formulated in 0.5% Tween 80) | efficacy (tumours; formulated in 30% hydroxypropyl-β-cyclodextrin) | fraction unbound [1] | cleaved caspase-3 induction by IHC (cleaved caspase-3 (CC3)) | OCI-LY10 xenograft efficacy, individual animals (OCI-LY10 xenograft; day 18) | OCI-LY10 xenograft efficacy, individual animals (OCI-LY10 xenograft; day 21) | OCI-LY10 xenograft efficacy, individual animals (OCI-LY10 xenograft; day 25) | OCI-LY10 xenograft efficacy, individual animals (OCI-LY10 xenograft; day 28) | OCI-LY10 xenograft efficacy, individual animals (OCI-LY10 xenograft; day 32) | OCI-LY10 xenograft efficacy, individual animals (OCI-LY10 xenograft; day 35) | OCI-LY10 xenograft efficacy, individual animals (OCI-LY10 xenograft; day 39) | OCI-LY10 xenograft efficacy, individual animals (OCI-LY10 xenograft; day 42) | mice with complete regressions (OCI-LY10 xenograft; OCI-LY10, AZD0466 in combination with acalabrutinib) | monotherapy activity (OCI-LY10 xenograft; OCI-LY10 DLBCL model)
1 | CN(CCO)CCC(CSc1ccccc1)Nc1ccc(S(=O)(=O)NC(=O)c2ccc(N3CCC(C(O)c4ccccc4-c4ccc(Cl)cc4)CC3)cc2)cc1S(=O)(=O)C(F)(F)F (centres unmarked) [AZD4320] | 31 10^9/L and 28 10^9/L and 46 10^9/L and 13 10^9/L | 30 109/l | < 1 µg/mL | no efficacy | complete regression of the tumours | < 3e-05 | robust cleaved caspase induction | – | – | – | – | – | – | – | – | – | –
2 | AZD4320-MIDA-PEG2100 [AZD0466] | – | – | – | – | – | – | – | 193 and 170 and 155 and 173 and 235 and 111 and 163 and 131 | 363 and 334 and 195 and 394 and 490 and 191 and 262 and 142 | 214 and 151 and 62 and 129 and 351 and 181 and 222 and 188 | 475 and 406 and 118 and 241 and 485 and 190 and 184 and 194 | 410 and 443 and 252 and 338 and 536 and 215 and 401 and 301 | 664 and 595 and 309 and 391 and 667 and 265 and 496 and 262 | 653 and 578 and 346 and 432 and 638 and 281 and 354 and 330 | 773 and 918 and 408 and 717 and 707 and 404 and 319 and 272 | 8/8 | neither agent showed any demonstrable monotherapy activity
